Measured values as given in patent US12478613B2, “Selective MAO-B inhibitor DRG-MAOB-2 for use in treatment of neurodegenerative diseases” (BAHCESEHIR UNIVERSITESI, priority 2020, dated 2025).

Key:
human MAO-A = biological target: T1, human MAO-A (Homo sapiens, UniProt P21397); test: MAO inhibitory assay (kynuramine, fluorescence), MAO-A; type: biochemical; conditions: human recombinant enzyme, kynuramine substrate, 37° C., pH 7.4
T1 sequence (P21397 1-527): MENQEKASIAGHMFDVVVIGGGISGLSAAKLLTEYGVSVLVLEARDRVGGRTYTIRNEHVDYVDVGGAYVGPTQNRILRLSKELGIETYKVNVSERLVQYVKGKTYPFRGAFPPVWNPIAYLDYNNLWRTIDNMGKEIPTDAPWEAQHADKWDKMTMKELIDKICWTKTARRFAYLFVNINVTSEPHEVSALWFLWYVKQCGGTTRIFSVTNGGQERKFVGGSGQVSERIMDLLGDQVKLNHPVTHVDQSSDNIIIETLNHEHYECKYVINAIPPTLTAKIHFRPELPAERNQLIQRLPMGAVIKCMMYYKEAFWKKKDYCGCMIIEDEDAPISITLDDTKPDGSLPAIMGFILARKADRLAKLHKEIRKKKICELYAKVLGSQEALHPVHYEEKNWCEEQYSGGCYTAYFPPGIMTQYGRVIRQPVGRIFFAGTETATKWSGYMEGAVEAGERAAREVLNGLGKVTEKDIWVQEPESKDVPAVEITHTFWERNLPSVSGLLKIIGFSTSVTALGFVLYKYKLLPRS
Method: (§1) MAO inhibitory activity was assayed using the method of Novaroli et al. with minor modifications. Briefly, 140 μL of 0.1 M potassium phosphate buffer (pH 7.4), 8 μL of 0.75 mM kynuramine, and 2 μL of a dimethyl sulfoxide (DMSO) inhibitor solution (final DMSO concentration of 1% (v/v) and final concentrations of the inhibitors of 0-1 μM), were preincubated at 37° C. for 10 min. Diluted human recombinant enzyme (50 μL) was then added to obtain a final protein concentration of 0.0075 mg/mL (MAO-A) or 0.015 mg/mL (MAO-B) in the assay mixture. The reaction mixture was further incubated at 37° C. and the reaction was stopped after 20 min by the addition of 75 μL of 2 M NaOH. The product generated by MAO, 4-quinolinol, is fluorescent and was measured at Ex 310 nm/Em 400 nm using a microplate reader (Thermo Scientific-Multiskan GO). Each data points of samples were triplicate. The sample solution was replaced with DMSO to provide a negative control.

human MAO-B = biological target: T2, human MAO-B (Homo sapiens, UniProt P27338); test: MAO inhibitory assay (kynuramine, fluorescence), MAO-B; type: biochemical
T2 sequence (P27338 1-520): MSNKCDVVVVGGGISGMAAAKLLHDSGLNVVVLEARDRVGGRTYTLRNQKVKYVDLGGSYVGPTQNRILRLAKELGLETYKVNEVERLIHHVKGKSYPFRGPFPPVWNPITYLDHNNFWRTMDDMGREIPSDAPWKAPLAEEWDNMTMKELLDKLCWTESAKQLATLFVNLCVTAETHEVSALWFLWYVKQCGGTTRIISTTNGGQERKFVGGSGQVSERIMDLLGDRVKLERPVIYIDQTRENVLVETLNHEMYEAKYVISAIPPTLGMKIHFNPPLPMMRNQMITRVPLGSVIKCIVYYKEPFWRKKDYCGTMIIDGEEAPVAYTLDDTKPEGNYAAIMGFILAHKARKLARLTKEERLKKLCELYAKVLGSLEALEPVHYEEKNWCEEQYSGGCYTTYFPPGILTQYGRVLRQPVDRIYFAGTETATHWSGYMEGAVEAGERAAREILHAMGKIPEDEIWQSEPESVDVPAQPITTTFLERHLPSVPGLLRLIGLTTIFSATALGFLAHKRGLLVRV
Method: as §1

IC50 (human MAO-A): 29.5 ± 1.1 nM | IC50 (human MAO-B; human recombinant enzyme, kynuramine substrate, 37° C., pH 7.4): 3.22 ± 0.02 nM | fold more potent binding to MOA-B compared to MOA-A (human MAO-B; ratio of IC50 MAO-A / MAO-B): approximately 9 fold
SMILES: COc1ccc(-c2cc(C(=O)NCCn3cnc4ccccc43)n[nH]2)cc1OC [compound of formula I]
